Measured values published in US20230066011A1, “PYRROLOPYRIMIDINE DERIVATIVE, AND PHARMACEUTICAL COMPOSITION FOR PREVENTING OR TREATING PROTEIN KINASE-RELATED DISEASE COMPRISING SAME AS ACTIVE INGREDIENT” (VORONOI CO., LTD., priority 2019, published 2023).

Tests used:
human DYRK1A and tau = experiment: Inhibition of tau phosphorylation, ClariCELL Kinase Cell-Based Assay, HEK 293 cells expressing human DYRK1A and tau; conditions: for inhibition at 1 µM: HEK293, read-out: % inhibition at 1 uM, tau phosphorylation, compound 1 uM; for inhibition at 0.25 µM / inhibition at 0.5 µM: HEK293, tau phosphorylation; for inhibition at 0.25 µM: compound 0.25 uM; for inhibition at 0.5 µM: compound 0.5 uM
How it was run: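 Cell-based service assay: HEK 293 cells transiently expressing human DYRK1A and tau were treated with compound and lysed. Released tau was plate-captured and its phosphorylation quantified by ELISA with a phospho-tau-specific antibody.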

human GST-CLK1 = target: T1, human GST-CLK1 (Homo sapiens, UniProt P49759); experiment: GST-CLK1 enzyme inhibition, ADP-Glo kinase assay; format: biochemical; conditions: ATP 10 μM, GST-CLK1 129-end
T1 construct: purified human GST-CLK1 (129-end, SignalChem) enzyme; purchased SignalChem
T1 sequence (P49759 129-484 limits assumed): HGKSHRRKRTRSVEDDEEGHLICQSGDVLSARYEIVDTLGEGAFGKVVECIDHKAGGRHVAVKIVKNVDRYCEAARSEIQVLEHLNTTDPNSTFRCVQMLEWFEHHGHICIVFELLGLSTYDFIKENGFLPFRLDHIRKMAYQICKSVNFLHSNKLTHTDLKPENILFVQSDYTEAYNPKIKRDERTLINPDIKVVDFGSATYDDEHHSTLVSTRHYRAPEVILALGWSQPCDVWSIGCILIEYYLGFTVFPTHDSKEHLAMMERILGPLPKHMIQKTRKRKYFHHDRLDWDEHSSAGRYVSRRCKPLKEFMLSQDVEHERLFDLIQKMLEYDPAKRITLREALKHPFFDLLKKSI
How it was run: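 ADP-Glo luminescence read-out, relative to untreated solvent control, gave IC50 (nM) from triplicate data sets. Reactions ran an hour at 25° C with 3 ng GST-CLK1 (residues 129-end), 10 μM ATP and specific substrate in Tris-HCl pH 7.4 buffer with MgCl2, BSA and DTT.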

TTK = target: T2, TTK (Homo sapiens, UniProt P33981); experiment: TTK enzyme inhibition, ADP-Glo kinase assay; format: biochemical; design: purchased SignalChem T20-10G; conditions: ATP 5 μM
T2 sequence (P33981 1-857): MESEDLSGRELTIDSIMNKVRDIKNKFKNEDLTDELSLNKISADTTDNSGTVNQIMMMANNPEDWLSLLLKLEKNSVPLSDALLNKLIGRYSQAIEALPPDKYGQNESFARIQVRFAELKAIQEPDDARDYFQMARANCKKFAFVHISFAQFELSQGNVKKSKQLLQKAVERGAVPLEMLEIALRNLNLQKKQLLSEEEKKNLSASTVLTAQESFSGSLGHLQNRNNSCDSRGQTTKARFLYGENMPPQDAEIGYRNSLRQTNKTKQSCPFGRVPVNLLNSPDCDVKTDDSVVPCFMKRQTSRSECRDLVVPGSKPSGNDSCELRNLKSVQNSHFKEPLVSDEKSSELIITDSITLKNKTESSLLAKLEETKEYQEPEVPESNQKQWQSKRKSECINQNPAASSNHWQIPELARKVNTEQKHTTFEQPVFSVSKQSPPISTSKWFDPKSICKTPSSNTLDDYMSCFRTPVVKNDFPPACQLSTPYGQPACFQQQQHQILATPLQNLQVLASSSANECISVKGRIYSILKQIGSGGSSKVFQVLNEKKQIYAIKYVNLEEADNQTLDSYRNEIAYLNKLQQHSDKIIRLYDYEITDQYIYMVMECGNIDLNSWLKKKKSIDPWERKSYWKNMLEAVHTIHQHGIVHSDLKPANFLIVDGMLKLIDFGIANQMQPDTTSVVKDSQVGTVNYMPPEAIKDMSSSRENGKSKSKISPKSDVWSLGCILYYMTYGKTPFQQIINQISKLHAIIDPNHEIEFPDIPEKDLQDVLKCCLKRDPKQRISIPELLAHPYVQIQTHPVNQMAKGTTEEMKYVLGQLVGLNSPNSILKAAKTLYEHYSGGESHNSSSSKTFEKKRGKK
How it was run: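 Purified human TTK (7.5 ng) was reacted with 5 μM ATP and 0.2 μg MBP substrate for 4 h at 25 °C in 40 mM Tris-HCl pH 7.4, 20 mM MgCl2, 0.1 mg/mL BSA, 50 μM DTT. ADP formation was read by ADP-Glo luminescence, and IC50 was taken relative to solvent control.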

SMILES	inhibition at 1 µM (human DYRK1A and tau) [%]	inhibition at 0.25 µM (human DYRK1A and tau) [%]	inhibition at 0.5 µM (human DYRK1A and tau) [%]	IC50 (human GST-CLK1) [µM]	IC50 (TTK) [µM]
O=C(c1ccc(Nc2nc(NC3CC3)c3c(C(F)(F)F)c[nH]c3n2)c2c1CCO2)N1CCC(N2CCOCC2)CC1 [Example 434, (7-((4-(cyclopropyl-amino)5-(trifluoromethyl)-7H-pyrrolo[2,3-d]pyrimidin-2-yl)amino)-2,3-dihydrobenzo-furan-4-yl)(4-morpho-linopiperidin-1-yl)methanone]	87.3	47.4	65.2	< 0.1	< 0.1
COc1cc(P2(=O)CCN(C3CCOCC3)CC2)ccc1Nc1nc(NC2CC2)c2c(C(F)(F)F)c[nH]c2n1 [Example 435, 4-(4-((4-(cyclo-propylamino)-5-(trifluoromethyl)-7H-pyrrolo[2,3-d]pyrimidin-2-yl)amino)-3-methoxyphenyl)-1-(tetrahydro-2H-pyran-4-yl)-1,4-azaphosphinane 4-oxide]	73.4	22.7	55.5	< 0.1	< 0.1
CCNc1nc(Nc2ccc(C(=O)N3CCC(N4CCOCC4)CC3)c3c2OCC3)nc2[nH]cc(C(F)(F)F)c12 [Example 438, (7-((4-(ethylamino)-5-(trifluoromethyl)-7H-pyrrolo[2,3-d]pyrimidin-2-yl)amino)-2,3-dihydrobenzo-furan-4-yl)(4-morpho-linopiperidin-1-yl)methanone]	86.8	46.3	69.7	< 0.1	< 0.1
CCCNc1nc(Nc2ccc(C(=O)N3CCC(N4CCOCC4)CC3)c3c2OCC3)nc2[nH]cc(C(F)(F)F)c12 [Example 446, (4-morpholino-piperidin-1-yl)(7-((4-(propylamino)-5-(trifluoromethyl)-7H-pyrrolo[2,3-d]pyrimidin-2-yl)amino)-2,3-dihydrobenzo-furan-4-yl)methanone]	84.9	25.7	61.1	< 0.1	< 0.1
CCNc1nc(Nc2ccc(C(=O)N3CCC(N4C[C@@H]5C[C@H]4CO5)CC3)c3c2OCC3)nc2[nH]cc(C(F)(F)F)c12 [Example 468]	92.5	50.3	75.4	< 0.1	< 0.1
